Measured values as given in article PMC11204923, “Marine Cytotoxin Santacruzamate A Derivatives as Potent HDAC1-3 Inhibitors and Their Synergistic Anti-Leukemia Effects with Venetoclax” (Marine Drugs, 2024).
Several values for one entry are separate records, joined by “and”; a condition that tells them apart may be missing. Equal entries are not always repeated.

How the values were obtained:
[1] = system: MV4-11, THP-1, HL60 and Kasumi-1 cells; assay: Cell viability assay, four AML cell lines together; assay type: cell-based; settings: 72 h; read-out: IC50 values against four AML cell lines (range)
Experimental: (§1) The AML cell lines MV4-11, THP-1, KASUMI-1 and HL-60 were purchased from Procell Life Science & Technology Co., Ltd. (Wuhan, China). THP-1 and KASUMI-1 were cultured in RPMI-1640 complete medium containing 10% fetal bovine serum and 1% penicillin and streptomycin. MV4-11 was cultured in IMDM complete medium containing 10% fetal bovine serum and 1% penicillin and streptomycin. HL-60 was cultured in IMDM complete medium containing 20% fetal bovine serum and 1% penicillin and streptomycin. All cell lines were cultured in an incubator with humidity set at 95%, temperature at 37 °C and 5% CO2.
(§2) MV4-11, THP-1, KASUMI-1 and HL-60 cells were plated in 96-well transparent plates (10,000 to 15,000 cells/100 μL) and after incubation overnight, cells were treated with gradient-diluted inhibitors with several concentrations. After the cells were incubated with inhibitors for 72 h, 1 mg/mL of Resazurin (Sigma-Aldrich, Saint Louis, MO, USA) was added (working concentration was 0.1 mg/mL). After incubation at 37 °C for about 3 h, the fluorescence intensity of […] was measured at 560 nm/590 nm (excitation/emission) with a Spectra Max i3 Microplate Reader, and the cell viability was determined. The IC50 curve was drawn using GraphPad Prism 9.5 software.

MV4-11 cells [2] = assay: Western blot analysis; assay type: cell-based; settings: 24 h
Experimental: MV4-11 cells were inoculated into 12-well plates at a density of 800,000 cells/mL. After incubation overnight, each well was treated with different concentrations of 25c and Venetoclax alone or in combination. After treatment for 24 h, the cells were collected and washed with pre-cooled PBS. A protease inhibitor (cocktail) and RIPA buffer were added for cell lysis. The decomposed solution was centrifuged at 12,000 rpm for 15 min at 4 °C, and the extracted protein was located in the supernatant. The proteins in each sample were denatured by heating at 100 °C in loading buffer (5×) for 10 min. The same amount of proteins in each sample was separated by SDS-PAGE and then electrotransferred to a PVDF membrane (Merck Millipore, Billerica, MA, USA) and enclosed in 5% skim milk powder for 1 h. The primary antibody diluted with an immune response booster solution was incubated in a shaking bed at 4 °C overnight, and the horseradish (HRP)-conjugated second antibody diluted with 5% skim milk powder was incubated at room temperature for 1 h on the second day. After the PVDF membrane was washed with TBST, the target protein bands could be detected with chemiluminescent reagents (Millipore, Billerica, MA, USA) and visualized in the Tanon 5200 + fluorescence imager.
The primary antibodies Caspase 3 (including Cleaved Caspase-3) (sc-56053), Mcl-1 (94296S), Bcl-xL (ab98143), γ-H2AX (9718S), AcHH3 (Lys27) (8173S), AcHH4 (sc-377520), HH3 (ab1791), Ac-tubulin (sc-23950), HDAC6 (sc-28386), α-tubulin (sc-23948), GAPDH (sc-59540) and β-actin (8H10D10) were purchased from Abcam, Cell Signaling Technology and Santa Cruz Biotechnology.

HDAC3 = biological target: T1, HDAC3 (Homo sapiens, UniProt O15379); assay: In vitro HDAC inhibition fluorescence assay, HDAC3; assay type: biochemical
T1 construct: purchased BPS Bioscience
Experimental: All of the HDAC enzymes were purchased from BPS Bioscience. In vitro HDAC inhibition assays were conducted as previously described. In brief, 20 μL of recombinant HDAC enzyme solution (HDAC1-9, 11) was mixed with various concentrations of the tested compound (20 μL). […] After incubation at 37 °C for 2 h, the catalysis was stopped by the addition of 10 μL of developer containing 30 mg/mL trypsin and 6 μM trichostatin A (TSA). Then, 30 min later, the fluorescence intensity was measured using a microplate reader at excitation and emission wavelengths of 360 and 460 nm, respectively. The inhibition ratios were calculated from the fluorescence intensity readings of tested wells relative to those of control wells, and the IC50 curves and values were determined by GraphPad Prism 6.0, using the “log(inhibitor) vs. normalized response-variable slope” function.

HDAC11 = biological target: T2, HDAC11 (Homo sapiens, UniProt Q96DB2); assay: In vitro HDAC inhibition fluorescence assay, HDAC11; assay type: biochemical
T2 construct: purchased BPS Bioscience
T2 sequence (Q96DB2 1-347): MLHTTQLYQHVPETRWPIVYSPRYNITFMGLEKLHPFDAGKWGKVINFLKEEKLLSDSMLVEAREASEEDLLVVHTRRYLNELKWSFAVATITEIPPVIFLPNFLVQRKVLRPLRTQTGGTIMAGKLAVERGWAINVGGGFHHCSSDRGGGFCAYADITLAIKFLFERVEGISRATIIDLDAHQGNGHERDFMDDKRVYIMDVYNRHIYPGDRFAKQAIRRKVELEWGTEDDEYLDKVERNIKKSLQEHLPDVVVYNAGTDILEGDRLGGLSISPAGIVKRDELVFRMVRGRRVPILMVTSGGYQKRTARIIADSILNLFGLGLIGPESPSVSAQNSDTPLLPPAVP
Experimental: All of the HDAC enzymes were purchased from BPS Bioscience. In vitro HDAC inhibition assays were conducted as previously described. In brief, 20 μL of recombinant HDAC enzyme solution (HDAC1-9, 11) was mixed with various concentrations of the tested compound (20 μL). The mixture was incubated at 37 °C for 1 h, and then, 10 μL of fluorogenic substrate (Boc-Lys (acetyl)-AMC for HDAC1, 2, 3 and 6; Boc-Lys (trifluoroacetyl)AMC for HDAC4, 5, 7, 8, 9 and 11) was added to achieve a final concentration of 50 μM. After incubation at 37 °C for 2 h, the catalysis was stopped by the addition of 10 μL of developer containing 30 mg/mL trypsin and 6 μM trichostatin A (TSA). Then, 30 min later, the fluorescence intensity was measured using a microplate reader at excitation and emission wavelengths of 360 and 460 nm, respectively. The inhibition ratios were calculated from the fluorescence intensity readings of tested wells relative to those of control wells, and the IC50 curves and values were determined by GraphPad Prism 6.0, using the “log(inhibitor) vs. normalized response-variable slope” function.

Kasumi-1 cells = assay: Cell viability assay (resazurin), Kasumi-1; assay type: cell-based; settings: Homo sapiens, Kasumi 1, 72 h; read-out: IC50 anti-proliferative activity Kasumi-1
Experimental: as §1, §2

MV4-11 cells [3] = assay: Cell viability assay (resazurin), MV4-11; assay type: cell-based; settings: Homo sapiens, MV4-11, 72 h; read-out: IC50 anti-proliferative activity MV4-11
Experimental: as §1, §2

T1 sequence (O15379 whole entry): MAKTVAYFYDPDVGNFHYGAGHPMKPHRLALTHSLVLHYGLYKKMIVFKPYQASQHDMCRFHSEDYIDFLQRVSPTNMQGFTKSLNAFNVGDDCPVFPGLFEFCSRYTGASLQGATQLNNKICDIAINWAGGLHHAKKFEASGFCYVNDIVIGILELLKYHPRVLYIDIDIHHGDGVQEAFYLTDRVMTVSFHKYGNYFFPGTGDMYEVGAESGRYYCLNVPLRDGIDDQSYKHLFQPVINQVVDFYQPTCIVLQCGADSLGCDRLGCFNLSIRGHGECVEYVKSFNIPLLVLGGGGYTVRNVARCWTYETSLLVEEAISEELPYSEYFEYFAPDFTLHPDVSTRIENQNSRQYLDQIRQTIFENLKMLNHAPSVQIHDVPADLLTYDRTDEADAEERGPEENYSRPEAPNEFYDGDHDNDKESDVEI
T1 sequence (Q9Y618 395-489 partner limits assumed): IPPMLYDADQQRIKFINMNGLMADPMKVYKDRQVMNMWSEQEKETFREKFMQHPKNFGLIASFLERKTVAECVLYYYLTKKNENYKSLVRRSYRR

SMILES: CCCNNC(=O)C=Cc1ccc(CNCCc2ccccc2)cc1 [Compound 25c, 3-(4-((Phenethylamino)methyl)phenyl)-N′-propylacrylohydrazide]
- IC50 [1]: 338 to 480 nM
- level of cleaved-caspase3 (MV4-11 cells [2]; 25c monotherapy, 30 nM and 90 nM): No substantial alterations
- level of acetyl-tubulin (MV4-11 cells [2]): increased
- level of acetylated histone H3 (AcHH3) (MV4-11 cells [2]): significantly elevated
- level of acetylated histone H4 (AcHH4) (MV4-11 cells [2]): significantly elevated
- IC50 (HDAC3): 2.4 nM and 2.39 nM and 2.3 nM
- inhibition at 0.01 µM (HDAC3; 10 nM, read-out: Inhibition Rate of HDAC3 (%)): > 95%
- inhibition at 0.1 µM (HDAC3; 100 nM, read-out: Inhibition Rate of HDAC3 (%)): 95.1 ± 0.1%
- IC50 (HDAC11): > 10000 nM
- IC50 (Kasumi-1 cells): 338 ± 125 nM
- IC50 (MV4-11 cells [3]): 340 ± 117 nM
